In US9006450B2 (Boehringer Ingelheim International GmbH, priority 2010, dated 2015):

What follows are compounds tested against T1, human ACC2 (Homo sapiens, UniProt O00763) (assay: ACC2 assay, spectrophotometric 384 well assay (NADH-linked, coupled lactate dehydrogenase/pyruvate kinase)). Conditions: ACC2 assay, hACC2 construct lacking 128 N-terminal amino acids, 25° C., 340 nm; read-out: IC50.
T1 construct: made in house; host or cells: insect cells (baculoviral expression system)
Assay type: biochemical
Procedure: Spectrophotometric 384 Well Assay
Malonyl CoA formation by acetyl CoA carboxylases is stoichometrically linked to the consumption of ATP. ACC2 activity is measured in a NADH-linked kinetic method measuring ADP generated during the ACC reaction using a coupled lactate dehydrogenase/pyruvate kinase reaction.
For biological testing, a human ACC2 construct which lacks the 128 amino acids at the N-terminus for increased solubility (nt 385-6966 in Genbank entry AJ575592) is cloned. The protein is then expressed in insect cells using a baculoviral expression system. Protein purification is performed by anion exchange.
All compounds are dissolved in dimethyl sulfoxide (DMSO) to a concentration of 10 mM.
Assay reactions are then carried out in 384-well plates, with hACC2 in an appropriate dilution and at final assay concentrations (f.c.) of 100 mM Tris (pH 7.5), 10 mM trisodium citrate, 25 mM KHCO3, 10 mM MgCl2, 0.5 mg/mL BSA, 3.75 mM reduced L-glutathione, 15 U/mL lactate dehydrogenase, 0.5 mM phosphoenolpyruvate, 15 U/mL pyruvate kinase, compounds at different concentrations at final DMSO concentrations of 1%.
The enzymatic reaction is then started by addition of a mixture of NADH, acetyl Coenzyme A (both 200 μM f.c.) and ATP (500 uM f.c.). The decrease of the optical density (slope S) is then determined at 25° C. at a wavelength of 340 nm over 15 minutes in a spectrophotometric reader.
Each assay microtiter plate contains wells with vehicle instead of compound as controls for the non-inhibited enzyme (100% CTL; ‘HIGH’) and wells without acetyl-CoA as controls for non-specific NADH degradation (0% CTL; ‘LOW’).
The slope S is used for calculation of % CTL=(S(compound)−S('LOW'))/(S('HIGH')−S('LOW'))*100. Compounds will give values between 100% CTL (no inhibition) and 0% CTL (complete inhibition).
For IC50 value determination, the sample slope in the presence of the test compound after subtraction of the low controls (S(compound)−S('LOW')) are used.
An IC50 value is derived from the compound slopes at different dosages after subtraction of the low controls (S(compound)−S('LOW')) by non-linear regression curve fitting (equation y=(A+((B−A)/(1+((C/x)^D))))).

T1 sequence (O00763 129-2458 limits assumed): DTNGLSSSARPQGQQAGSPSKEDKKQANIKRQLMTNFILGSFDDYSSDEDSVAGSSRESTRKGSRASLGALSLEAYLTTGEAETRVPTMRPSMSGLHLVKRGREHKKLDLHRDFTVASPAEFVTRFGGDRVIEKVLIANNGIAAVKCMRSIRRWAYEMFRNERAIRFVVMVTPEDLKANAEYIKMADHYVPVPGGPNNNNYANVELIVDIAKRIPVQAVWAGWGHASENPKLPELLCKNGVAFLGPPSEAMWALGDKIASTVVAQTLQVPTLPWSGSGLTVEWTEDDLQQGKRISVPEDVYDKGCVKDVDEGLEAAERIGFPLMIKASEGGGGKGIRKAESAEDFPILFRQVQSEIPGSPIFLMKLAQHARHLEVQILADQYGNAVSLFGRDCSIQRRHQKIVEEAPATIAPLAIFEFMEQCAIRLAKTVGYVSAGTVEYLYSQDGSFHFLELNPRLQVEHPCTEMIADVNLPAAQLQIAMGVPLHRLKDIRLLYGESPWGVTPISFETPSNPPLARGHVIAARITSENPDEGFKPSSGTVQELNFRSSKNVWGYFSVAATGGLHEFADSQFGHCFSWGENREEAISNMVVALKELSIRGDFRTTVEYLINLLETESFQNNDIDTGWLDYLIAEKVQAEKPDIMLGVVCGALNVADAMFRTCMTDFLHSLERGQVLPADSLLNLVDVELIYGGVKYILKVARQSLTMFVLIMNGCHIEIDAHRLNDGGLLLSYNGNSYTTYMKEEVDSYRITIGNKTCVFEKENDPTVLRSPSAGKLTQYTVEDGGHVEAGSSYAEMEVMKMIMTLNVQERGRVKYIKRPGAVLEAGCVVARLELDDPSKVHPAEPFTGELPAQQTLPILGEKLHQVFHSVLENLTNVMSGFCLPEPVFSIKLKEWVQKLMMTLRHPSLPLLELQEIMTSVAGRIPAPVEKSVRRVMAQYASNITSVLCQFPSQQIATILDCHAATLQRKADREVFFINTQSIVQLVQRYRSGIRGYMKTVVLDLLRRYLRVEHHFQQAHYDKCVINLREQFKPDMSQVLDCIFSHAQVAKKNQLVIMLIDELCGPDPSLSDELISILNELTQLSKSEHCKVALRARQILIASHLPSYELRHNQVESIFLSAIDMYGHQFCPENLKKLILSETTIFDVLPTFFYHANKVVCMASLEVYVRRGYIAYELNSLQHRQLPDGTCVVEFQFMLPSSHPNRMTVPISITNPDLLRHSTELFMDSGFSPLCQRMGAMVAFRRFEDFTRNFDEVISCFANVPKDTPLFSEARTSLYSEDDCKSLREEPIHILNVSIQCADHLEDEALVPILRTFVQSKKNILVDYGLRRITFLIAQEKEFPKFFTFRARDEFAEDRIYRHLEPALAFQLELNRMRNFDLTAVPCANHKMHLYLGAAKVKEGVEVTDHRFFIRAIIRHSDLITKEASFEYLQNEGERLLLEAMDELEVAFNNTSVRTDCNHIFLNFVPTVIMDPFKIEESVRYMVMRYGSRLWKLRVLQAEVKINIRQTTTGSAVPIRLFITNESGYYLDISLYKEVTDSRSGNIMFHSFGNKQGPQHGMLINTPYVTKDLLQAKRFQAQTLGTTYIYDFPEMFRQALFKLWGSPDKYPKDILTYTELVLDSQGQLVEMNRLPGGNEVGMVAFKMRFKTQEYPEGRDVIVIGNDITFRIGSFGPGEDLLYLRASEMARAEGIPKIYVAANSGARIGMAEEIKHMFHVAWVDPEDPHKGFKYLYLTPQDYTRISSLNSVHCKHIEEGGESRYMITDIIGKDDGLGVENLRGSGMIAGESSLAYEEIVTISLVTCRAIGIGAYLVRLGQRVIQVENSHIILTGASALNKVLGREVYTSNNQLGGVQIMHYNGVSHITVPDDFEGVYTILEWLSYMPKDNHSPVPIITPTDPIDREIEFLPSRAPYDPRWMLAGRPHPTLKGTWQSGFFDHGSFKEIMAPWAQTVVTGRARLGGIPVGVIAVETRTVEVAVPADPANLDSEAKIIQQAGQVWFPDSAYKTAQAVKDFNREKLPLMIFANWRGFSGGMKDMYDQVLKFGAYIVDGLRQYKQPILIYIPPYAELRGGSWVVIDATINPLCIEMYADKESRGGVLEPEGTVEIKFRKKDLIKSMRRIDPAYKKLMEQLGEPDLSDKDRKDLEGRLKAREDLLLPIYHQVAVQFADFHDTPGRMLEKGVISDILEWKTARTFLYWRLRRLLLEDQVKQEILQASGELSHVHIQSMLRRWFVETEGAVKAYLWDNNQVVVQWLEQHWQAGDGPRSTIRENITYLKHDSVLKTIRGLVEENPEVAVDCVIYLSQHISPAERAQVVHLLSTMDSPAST

Row | SMILES | IC50 [µM]
1 | C[C@H](NC(=O)C1CC1)c1ccc(C2CCN(c3ccc(OCC4CCC4)cc3)CC2)cc1 [Example 1.141] | 0.32
2 | C[C@H](NC(=O)N(C)C)c1ccc(C2CCN(c3ccc(OCC4CCC4)cc3)CC2)cc1 [Example 1.142] | 0.06
3 | C[C@H](NC(=O)C1CC1)c1ccc(C2CCN(c3ccc(OCCC4CC4)cc3)CC2)cc1 [Example 1.143] | 0.12
4 | C[C@H](NC(=O)N(C)C)c1ccc(C2CCN(c3ccc(OCCC4CC4)cc3)CC2)cc1 [Example 1.144] | 0.06
5 | CCCOc1ccc(N2CCC(c3ccc([C@H](C)NC(=O)CC)cc3)CC2)cc1 [Example 1.145] | 0.14
6 | CCC(=O)N[C@@H](C)c1ccc(C2CCN(c3ccc4c(c3)OCCO4)CC2)cc1 [Example 1.146] | 1.1
7 | CCCOc1ccc(N2CCC(c3ccc([C@H](C)NC(=O)CC)cc3)CC2)c(OC)c1 [Example 1.147] | 0.49
8 | CCC(=O)N[C@@H](C)c1ccc(C2CCN(c3ccc(OCC4CC4)cc3F)CC2)cc1 [Example 1.148] | 0.7
9 | CCC(=O)N[C@@H](C)c1ccc(C2CCN(c3ccc(OCC(C)C)cc3)CC2)cc1 [Example 1.149] | 0.14
10 | CCC(=O)N[C@@H](C)c1ccc(C2CCN(c3ccc(OC4CC4)cc3)CC2)cc1 [Example 1.151] | 0.11
11 | CCC(=O)N[C@@H](C)c1ccc(C2CCN(c3ccc(OCC4CC4(F)F)cc3)CC2)cc1 (stereo partly drawn) [Example 1.152] | 0.08
12 | CCC(=O)N[C@@H](C)c1ccc(C2CCN(c3ccnc(Oc4ccccc4)c3)CC2)cc1 [Example 1.153] | 0.52
13 | CCOc1ccc(N2CCC(c3ccc([C@H](C)NC(=O)CC)cc3)CC2)c(C#N)c1 [Example 1.154] | 0.3
14 | CC(=O)N[C@@H](C)c1ccc(C2CCN(c3ccc(F)c(C)c3)CC2)cc1 [Example 1.155] | 0.41
15 | CC(=O)N[C@@H](C)c1ccc(C2CCN(c3ccc(Cl)c(C)c3)CC2)cc1 [Example 1.156] | 0.6
16 | COc1ccc(N2CCC(c3ccc([C@H](C)NC(C)=O)cc3)CC2)cc1F [Example 1.157] | 0.58
17 | CC(=O)N[C@@H](C)c1ccc(C2CCN(c3ccc(F)c(C#N)c3)CC2)cc1 [Example 1.159] | 2.7
18 | COc1ccc(N2CCC(c3ccc([C@H](C)NC(C)=O)cc3)CC2)cc1C [Example 1.160] | 2.1
19 | CC(=O)N[C@@H](C)c1ccc(C2CCN(c3ccc(Cl)c(F)c3)CC2)cc1 [Example 1.161] | 0.64
20 | COc1cc(N2CCC(c3ccc([C@H](C)NC(C)=O)cc3)CC2)ccc1Cl [Example 1.162] | 3.1
21 | CC(=O)N[C@@H](C)c1ccc(C2CCN(c3ccc(F)c(F)c3)CC2)cc1 [Example 1.163] | 0.67
22 | CC(=O)N[C@@H](C)c1ccc(C2CCN(c3ccc(OCC(F)F)cc3)CC2)cc1 [Example 1.164] | 0.77

Row | SMILES | IC50 [µM]
23 | CC(=O)N[C@@H](C)c1ccc(C2CCN(c3ccc(OCCC(F)(F)F)cc3)CC2)cc1 [Example 1.165] | 0.1
24 | COc1ccc(N2CCC(c3ccc([C@H](C)NC(C)=O)cc3)CC2)cc1C1CC1 [Example 1.166] | 4
25 | CC(=O)N[C@@H](C)c1ccc(C2CCN(c3ccc(OCC4CCCO4)cc3)CC2)cc1 (stereo partly drawn) [Example 1.167] | 0.91
26 | CCOc1ccc(N2CCC(c3ccc([C@H](C)NC(=O)CC)cc3)CC2)c(F)c1 [Example 1.168] | 0.5
27 | CCC(=O)N[C@@H](C)c1ccc(C2CCN(c3ccnc(Oc4cncnc4)c3)CC2)cc1 [Example 1.169] | 1.7
28 | CCOc1ccc(N2CCC(c3ccc([C@H](C)NC(=O)OC)cc3)CC2)c(F)c1 [Example 1.170] | 0.4
29 | CC(=O)N[C@@H](C)c1ccc(C2CCN(c3ccc(Cl)cc3C#N)CC2)cc1 [Example 1.171] | 16.3
30 | CC(=O)N[C@@H](C)c1ccc(C2CCN(c3ccc(OC4CCCCC4)nc3)CC2)cc1 [Example 1.172] | 0.25
31 | CC(=O)N[C@@H](C)c1ccc(C2CCN(c3cnc(C4CC4)cn3)CC2)cc1 [Example 1.173] | 0.82
32 | CC(=O)N[C@@H](C)c1ccc(C2CCN(c3ccc(C4CC4)nn3)CC2)cc1 [Example 1.174] | 7.5
33 | CC(=O)N[C@@H](C)c1ccc(C2CCN(c3ccc(C4CC4)nc3)CC2)cc1 [Example 1.175] | 1.1
34 | CCCOc1ccc(N2CCC(c3ccc([C@H](C)NC(=O)N(C)C)cc3)CC2)nc1 [Example 1.178] | 0.17
35 | CCOc1ccc(N2CCC(c3ccc([C@H](C)NC(=O)N(C)C)cc3)CC2)nc1 [Example 1.179] | 0.31
36 | CCOc1ccc(N2CCC(c3ccc([C@H](C)NC(C)=O)cc3)CC2)c(OCC)n1 [Example 1.180] | 0.53
37 | CCCOc1ccc(N2CCC(c3ccc([C@H](C)NC(C)=O)cc3)CC2)c(C#N)n1 [Example 1.181] | 0.09
38 | CC(=O)N[C@@H](C)c1ccc(C2CCN(c3ccc(OCC4CC4)nc3C#N)CC2)cc1 [Example 1.183] | 0.15
39 | CC(=O)N[C@@H](C)c1ccc(C2CCN(c3cc4c(cc3F)OCCCO4)CC2)cc1 [Example 1.184] | 1.2
40 | C[C@H](NC(=O)C1CC1)c1ccc(C2CCN(c3cc4c(cc3F)OCCCO4)CC2)cc1 [Example 1.185] | 22.1
41 | CC(=O)N[C@@H](C)c1ccc(C2CCN(c3ccc(OCc4ccoc4)cc3)CC2)cc1 [Example 1.186] | 0.17
42 | CC(=O)N[C@@H](C)c1ccc(C2CCN(c3cccc(C(F)(F)F)c3)CC2)cc1 [Example 1.188] | 0.08
43 | CC(=O)N[C@@H](C)c1ccc(C2CCN(c3ccc(OC4CC4)cc3F)CC2)cc1 [Example 1.189] | 0.06
44 | CCOc1cc(N2CCC(c3ccc([C@H](C)NC(C)=O)cc3)CC2)c(F)cn1 [Example 1.190] | 1.4

Row | SMILES | IC50 [µM]
45 | CCOc1cc(N2CCC(c3ccc([C@H](C)NC(C)=O)cc3)CC2)ccn1 [Example 1.191] | 0.39
46 | CC(=O)N[C@@H](C)c1ccc(C2CCN(c3ccc4c(c3F)OCCO4)CC2)cc1 [Example 1.192] | 0.12
47 | CCCOc1ccc(N2CCC(c3ccc(C(CC)NC(C)=O)cc3)CC2)cc1 (stereo not drawn) [Example 1.200] | 0.45
48 | CCC(NC(C)=O)c1ccc(C2CCN(c3ccc4c(c3)OCCO4)CC2)cc1 (stereo not drawn) [Example 1.201] | 4.6
49 | CCC(NC(C)=O)c1ccc(C2CCN(c3ccc(OCC4CC4)cc3F)CC2)cc1 (stereo not drawn) [Example 1.202] | 1.9
50 | CCC(NC(C)=O)c1ccc(C2CCN(c3ccc(OCC4CC4)cc3)CC2)cc1 (stereo not drawn) [Example 1.203] | 0.62
51 | CCC(NC(C)=O)c1ccc(C2CCN(c3ccc(OC4CC4)cc3)CC2)cc1 (stereo not drawn) [Example 1.204] | 0.45
52 | CCC(NC(C)=O)c1ccc(C2CCN(c3ccc(OCC4CC4(F)F)cc3)CC2)cc1 (stereo not drawn) [Example 1.205] | 0.66
53 | CCOc1ccc(N2CCC(c3ccc(C(CC)NC(C)=O)cc3)CC2)cc1 (stereo not drawn) [Example 1.206] | 4.7
54 | CCOc1ccc(N2CCC(c3ccc(C(CC)NC(C)=O)cc3)CC2)c(F)c1 (stereo not drawn) [Example 1.207] | 5.1
55 | CCOc1ccc(N2CCC(c3ccc(CC(C)NC(C)=O)cc3)CC2)cc1 (stereo not drawn) [Example 2.1, N-(2-{4-[1-(4-Ethoxy-phenyl)-piperidin-4-yl]-phenyl}-1-methyl-ethyl)-acetamide] | 2.1
56 | CCCOc1ccc(N2CCC(c3ccc(CC(C)NC(C)=O)cc3)CC2)cc1 (stereo not drawn) [Example 2.3] | 0.99
57 | CC(=O)NC(C)Cc1ccc(C2CCN(c3ccc4c(c3)OCCO4)CC2)cc1 (stereo not drawn) [Example 2.4] | 1.8
58 | CC(=O)NC(C)Cc1ccc(C2CCN(c3ccc(OCC(C)C)cc3)CC2)cc1 (stereo not drawn) [Example 2.7] | 1.6
59 | CC(=O)NC(C)Cc1ccc(C2CCN(c3ccc(OCC4CC4)cc3)CC2)cc1 (stereo not drawn) [Example 2.8] | 0.96
60 | CC(=O)NC(C)Cc1ccc(C2CCN(c3ccc(OC4CC4)cc3)CC2)cc1 (stereo not drawn) [Example 2.9] | 0.46
61 | CCOc1ccc(N2CCC(c3ccc(CC(C)NC(C)=O)cc3)CC2)c(C#N)c1 (stereo not drawn) [Example 2.11] | 1.3
62 | CCOc1ccc(N2CCC(c3ccc(CC(C)NC(C)=O)cc3)CC2)c(F)c1 (stereo not drawn) [Example 2.12] | 0.53
63 | CC(=O)N[C@@H](C)c1ccc(C2CCN(c3cnn(Cc4ccccc4)c3)CC2)cc1 [Example 2.13] | 1.9
64 | CC(=O)N[C@@H](C)c1ccc(C2CCN(c3ccc(Oc4ccccc4)nc3)CC2)cc1 [Example 3.1, (S)—N-{1-[4-(6′-Phenoxy-3,4,5,6-tetrahydro-2H-1,3′]bipyridinyl-4-yl)-phenyl′-ethyl}-acetamide] | 0.36
65 | COc1cc(N2CCC(c3ccc([C@H](C)NC(C)=O)cc3)CC2)ccn1 [Example 3.2] | 0.33
66 | CC(=O)N[C@@H](C)c1ccc(C2CCN(c3ccnc(OC(C)C)c3)CC2)cc1 [Example 3.3] | 0.11
